Data on one compound can be found in patent US20070191493A1, “Use of n-alkanols as activators of the cftr channel” (priority 2003, published 2007).

Like-named read-outs stand apart in the source and are kept apart here.

One experiment deals with intracellular cAMP level. In words: total intracellular cAMP assay in CHO-CFTR(+) cells. The experiment is classed as cell-based, Chinese hamster. The following applies: 5 min, FSK 1 or 5 μM, alcohols 1 mM. As to the method:
The CHO cells are cultured for four days in a 24-well culture plate. On the fourth day of culture, each well is rinsed twice with 500 μl of medium B, and 500 μl of this buffer containing the molecule to be tested are added to each well. After incubation at 37° C. for 5 min, the reaction is stopped by adding a cell lysis buffer. The cell lysis is verified with Trypan blue. The amount of cAMP contained in the cells is determined using the Enzyme Immuno Assay kit (Amersham Biotechnology). The cAMP level is expressed in pmol/well ±SD.
On the technique in general: cAMP levels reflect the balance of adenylyl cyclase and phosphodiesterase activity.

Experiment [1] deals with T1, human CFTR channel endogenously expressed in Calu-3 (Homo sapiens, UniProt P13569).
T1 construct: human pulmonary epithelial cells endogenously expressing the CFTR channel; host or cells: Calu-3 human pulmonary epithelial cells
In words: iodide efflux in Calu-3 human bronchial epithelial cells. The experiment is classed as cell-based. Particulars: for EC50: Calu-3 cells, read-out: half-effect concentration (EC50). How it is done: The CFTR studies are also carried out on Calu-3 cells (ATCC No. HTB-55), which are human pulmonary epithelial cells endogenously expressing the CFTR channel. These cells are cultured under the same culture conditions as the CHO cells. The study of the mutated CFTR channel is carried out on JME/CF15 cells, which are epithelial cells extracted from respiratory airways of patients suffering from cystic fibrosis (homozygous ΔF508) (Jefferson et al., 1990). These cells therefore express the ΔF508 mutated CFTR channel. These cells are cultured under the same conditions as above, but the culture medium is supplemented with a hormone mixture containing: adenine (180 μM), insulin (5 μg/ml), transferrin (5 μg/ml), hydrocortisone (1.1 μM), triiodothyronine (2 nM), epinephrine (5.5 μM), epidermal growth factor (1.64 nM).
This technique makes it possible to follow the kinetics of exit of the ^125I radioactive iodide. The cells are cultured in 24-well plates with a dilution to 1/10 after passage. On the fourth day of culture, the drugs to be tested are dissolved in solution according to the desired concentration, at 37° C., in medium B, at pH 7.4, containing, in mM: 137 NaCl, 5.36 KCl, 0.8 mM MgCl2, 1.8 mM CaCl2, 5.5 glucose and 10 HEPES-NaOH. The wells are washed 4 times with 500 μl of medium B. The solution is subsequently replaced with 500 μl of loading solution containing 1 μM KI and 0.5 μCi of ^125INa/ml for 30 min. The kinetics of exit of ^125I are determined after having eliminated the loading solution and washed the wells 4 times with 500 μl of medium B. For the ^125I exit kinetics, 500 μl of medium B containing or not containing the molecules to be tested are incubated for 30 sec in the wells and recovered in a hemolysis tube, so as to be replaced with 500 μl of medium B containing or not containing the molecules to be tested. The operation is repeated every 30 s for 2 to 6 min. At the end of the efflux, the intracellular ions are extracted by adding 1 ml of trichloroacetic acid (7.5%) to the cell layer. All the samples are counted in a gamma counter (Kontron). The precipitated proteins are solubilized in 0.1N NaOH and quantified using a calorimetric test.
The tracer contained in the cell layer at the beginning of the efflux is calculated as the sum of the samples and of the extracts counted. The efflux curves are constructed by expressing the percentage of the content remaining in the cell layer (I %) with respect to time. The stimulated or nonstimulated efflux rate constants (k, min^−1) are determined by smoothing the efflux curves to a monoexponential function I %=100*exp(−kt) using a linear regression of the neperian logarithm of the data, k is used to calculate the iodide released into the medium with respect to time. The hypothesis is made that, in the presence of a stimulator, the efflux is the sum of two iodide effluxes occurring in parallel: a basal efflux and a stimulated efflux characterized, respectively, by the constants kb and ks. The total net efflux is then described by the equation It^%=100*(1−exp(−ktt)) where kt is the sum of kb and ks. Finally, ks calculated as kt−kb is used to establish a dose-response relationship for antagonists. The data is expressed as means ±SD, and the t-test is used to determine the significances. […] Y begins at the basal level and progresses to the plateau (Ymax), X is the concentration and the half-effect values (EC are calculated using GraphPad Prism v3.0 (GraphPad software)).

T1 sequence (P13569 whole entry): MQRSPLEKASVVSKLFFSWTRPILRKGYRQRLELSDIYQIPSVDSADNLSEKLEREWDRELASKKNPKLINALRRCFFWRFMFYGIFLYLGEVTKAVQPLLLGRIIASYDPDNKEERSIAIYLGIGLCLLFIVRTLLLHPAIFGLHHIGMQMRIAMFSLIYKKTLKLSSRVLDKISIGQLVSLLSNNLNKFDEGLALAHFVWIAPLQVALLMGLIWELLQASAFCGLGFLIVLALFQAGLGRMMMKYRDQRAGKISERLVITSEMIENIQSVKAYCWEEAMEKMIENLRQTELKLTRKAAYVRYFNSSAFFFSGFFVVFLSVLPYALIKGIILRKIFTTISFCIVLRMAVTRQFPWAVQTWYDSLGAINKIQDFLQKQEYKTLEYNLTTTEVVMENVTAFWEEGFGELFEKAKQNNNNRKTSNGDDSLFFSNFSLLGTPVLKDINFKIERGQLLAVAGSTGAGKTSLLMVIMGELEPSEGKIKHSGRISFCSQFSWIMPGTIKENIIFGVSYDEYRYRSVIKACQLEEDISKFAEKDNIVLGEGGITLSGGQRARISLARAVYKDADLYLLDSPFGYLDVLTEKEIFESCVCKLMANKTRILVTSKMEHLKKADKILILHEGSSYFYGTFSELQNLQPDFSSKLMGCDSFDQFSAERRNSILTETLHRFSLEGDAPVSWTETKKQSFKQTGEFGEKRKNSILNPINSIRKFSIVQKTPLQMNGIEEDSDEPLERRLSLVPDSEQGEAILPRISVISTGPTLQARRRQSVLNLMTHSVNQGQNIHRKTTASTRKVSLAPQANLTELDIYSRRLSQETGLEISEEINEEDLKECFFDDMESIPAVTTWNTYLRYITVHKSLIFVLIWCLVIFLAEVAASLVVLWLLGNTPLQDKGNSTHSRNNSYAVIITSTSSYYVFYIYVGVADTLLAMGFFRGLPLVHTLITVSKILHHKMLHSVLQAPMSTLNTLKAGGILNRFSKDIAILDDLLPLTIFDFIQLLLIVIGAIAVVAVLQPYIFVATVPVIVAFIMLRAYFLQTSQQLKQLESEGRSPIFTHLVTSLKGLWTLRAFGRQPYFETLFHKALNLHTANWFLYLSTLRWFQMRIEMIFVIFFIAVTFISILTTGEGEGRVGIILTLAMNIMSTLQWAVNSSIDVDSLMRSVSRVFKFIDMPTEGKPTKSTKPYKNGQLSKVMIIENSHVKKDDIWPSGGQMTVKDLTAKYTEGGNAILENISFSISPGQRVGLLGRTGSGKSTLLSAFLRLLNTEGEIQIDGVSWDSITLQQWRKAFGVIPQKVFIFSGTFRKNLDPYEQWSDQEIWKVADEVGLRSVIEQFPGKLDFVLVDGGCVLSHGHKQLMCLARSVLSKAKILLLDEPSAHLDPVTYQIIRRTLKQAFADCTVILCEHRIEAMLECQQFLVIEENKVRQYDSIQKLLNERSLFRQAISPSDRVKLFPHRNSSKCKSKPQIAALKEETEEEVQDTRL

Turning to `CCCCCCCCO` [octan-1-ol], the “effect on intracellular cAMP level” value in the experiment with intracellular cAMP level was “neither octan-1-ol, hexan-1-ol or ethanol modifies the basal cAMP level”. Besides, the EC50 in experiment [1] (in the absence of FSK) is 1140 µM; in experiment [1] (in the presence of FSK (1 μM)) it was 512 µM. Moreover, the “activation of iodide efflux in Calu-3 cells, in words” value in experiment [1] (octan-1-ol 0.1 to 10 mM, FSK 1 μM) is “activates the exit of iodide”.
